The values below come from patent US20250009765A1, “COMPOSITIONS AND METHODS FOR REDUCING SLEEP DI[…] TREATING SLEEP DISORDERS” (FloraScience Inc., priority 2023, published 2025).

Assay type in all cases: in vivo, human
Data set [1] can be described thus: Tolerability: side effects reported by participants. The settings on record: 4 mg melatonin. The method, then: (§1) The primary aim of this study was to assess the effects of three different formulations of TruCBN softgels and a formulation of 4 mg melatonin on sleep quality, relative to placebo control. There were 5 arms within the study; (1) 4 mg melatonin, (2) 25 mg CBN, (3) 50 mg CBN, (4) 100 mg CBN, and (5) placebo (see Table 1 for further details on study arm formulations). All study arms provided the test article as a softgel. Participants were instructed to take 1 softgel 1-2 hours before bed. To ensure that results were not biased, participants were randomly assigned to product, were blinded to the contents, and were not told what they were taking until the conclusion of the study. The secondary aim of the study was to assess the tolerability of the three formulations of TruCBN softgels and 4 mg melatonin, relative to placebo.
(§2) After receiving study product, each participant was instructed to take 1 softgel each day orally 1-2 hours before bed and complete weekly health and product use surveys. This phase of the study lasted about 4 weeks.
The side effects for all study arms were similar in frequency and mostly mild; none were considered serious or required use of emergency or non-emergency healthcare services. The most commonly reported side effect was grogginess or drowsiness (see FIG. 7). Additional side effects reported by some participants included: chest pain, constipation, urinary tract infection, tingling in lips, dry mouth, weight gain, dry or itchy eyes, low libido, rash, and brain fog.

A short description of data set [2]: Average time to effect reported by participants. To be noted: 4 mg melatonin softgel, oral. The protocol: as §2
Participants reported experiencing an effect between 46 and 55 minutes after taking their study product.

Data set [3] concerns sleep disturbance. Nature of the data set: PROMIS Sleep Disturbance SF4A survey, randomized blinded placebo-controlled study. The protocol: as §1
(§3) Study participants were at least 21 years old, endorsed a desire for better sleep quality, and expressed interest in taking a cannabinoid product to improve their sleep. The study was entirely virtual; participants were recruited through online recruitment channels, study product was delivered directly to participants' homes, and all data were collected via online surveys delivered to their mobile device or computer. There were four phases of the study (see FIG. 1 for study timeline): (1) Recruitment and Randomization, (2) Baseline (1 week), (3) Study period (2-5 weeks), and (4) Conclusion.
The PROMIS™ Sleep Disturbance SF4A threshold for minimally important difference: One-half the standard deviation of the baseline score (Norman, G. R. et al., Med. Care, 2003, 41:582-592).
as §2
(§4) For precision, adjustments were made for sex, age, race, ethnicity, and body mass index (BMI) in every model. […] Analysis was conducted using Stata 17 and R. An intent-to-treat analysis was run, meaning that all participants who were assigned product (aside from the aforementioned exclusions) were included in the analysis according to their product assignment, regardless of product adherence or study attrition. Visuals of the predicted marginal means of health scores, rather than the raw mean scores, were prepared. Predicted marginal means were calculated from the statistical models and better represent the true differences between arms adjusting for any potential imbalances across arms. A finding that was “significant” means that the likelihood of falsely rejecting the null hypothesis that there were no differences between groups was very small (less than 5%; i.e., the p-value was less than 0.05). In other words, when certain findings were said to be “significant” they are not considered the result of random variation.

Data set [4] has as its system sleep disturbance. Nature of the data set: Participant global impression of change (PGIC) in sleep disturbance. The protocol: as §1
Participants received a final study survey asking about their overall experiences and impressions. Afterwards they also receive a Report containing their individualized data.
as §4

The subject of data set [5] is sleep disturbance. Nature of the data set: PROMIS Sleep Disturbance 8A survey, randomized blinded placebo-controlled study. The protocol: as §1, §3
PROMIS™ Sleep Disturbance 8A: An 8-question survey, with severity thresholds based on T-scores not raw scores. The severity scores are established as follows: • “None to slight”=Less than 55 • “Mild”=55.0-59.9 • “Moderate”=60.0-69.9 • “Severe”=70 and up
The range of raw scores were from 8 to 40, with higher scores translating to greater sleep disturbance (i.e., worse sleep quality). PROMIS™ Sleep Disturbance 8A threshold for minimally important difference: One-half the standard deviation of the baseline score (Purvis, Taylor E. et al., SPINE, 2018, 43(21):1512-1520).
as §2, §4

[6] abbreviates: 4 mg melatonin − placebo, 95% CI in parentheses.
The mark [7] stands for this setting: 4 mg melatonin, 30% or greater reduction from baseline.
Where [8] appears, read: 4 mg melatonin, improvement = 30% or greater reduction from baseline, 95% CI in parentheses.

For `COc1ccc2[nH]cc(CCNC(C)=O)c2c1` [melatonin, reference compound], the “% of participants reporting any side effects” value in data set [1] is given as 11.9%. Further, in data set [2], the “Average time to effect” value is reported as 49.1 min. Also, the “Relative Risk for meaningful clinical improvement on the PROMIS Sleep SF4A” value in the data set with sleep disturbance [3] (setting [6]) was 1.49 (0.74, 2.25). For the same compound, in the data set with sleep disturbance [3] (setting [7]), the “Observed % Achieving Meaningful Clinical Improvement on the PROMIS Sleep SF4A” value was found to be 53.25%. In addition, in the data set on sleep disturbance [3] (setting [8]), the “Estimated marginal percentage achieving meaningful clinical improvement on the PROMIS Sleep SF4A” value is 51.25% (38.25%, 68.7%). For the same compound, the “Estimated marginal mean, PROMIS Sleep Disturbance SF4A” value is on record as 10.8 with sleep disturbance [3] (4 mg melatonin, week 1); 10.7 with sleep disturbance [3] (4 mg melatonin, week 2); 10.7 in the data set on sleep disturbance [3] (4 mg melatonin, week 3); 10.5 with sleep disturbance [3] (4 mg melatonin, week 4). Besides, the “Parameter estimate for PGIC in sleep disturbance” value with sleep disturbance [4] (4 mg Melatonin, treatment reference placebo, log-odds scale) was 0.79. In addition, the “Marginal mean (95% confidence interval), sleep disturbance PGIC” value with sleep disturbance [4] (4 mg melatonin) is listed as 3.88. In the data set with sleep disturbance [4] (4 mg melatonin − placebo, Dunnett correction), the “Odds Ratio (95% Confidence interval), sleep disturbance PGIC” value was 2.21 (1.15, 4.21). The “Parameter Estimate for PROMIS Sleep Disturbances 8a, Treatment” value with sleep disturbance [5] (4 mg Melatonin, reference placebo, linear mixed-effects model) is −0.56. Further, in the data set on sleep disturbance [5] (setting [6]), the “Relative Risk for meaningful clinical improvement on the PROMIS Sleep Disturbance 8A” value was 1.43 (0.7, 2.16). Also, the “Observed % Achieving Meaningful Clinical Improvement on the PROMIS Sleep 8A” value in the data set with sleep disturbance [5] (setting [7]) is 51.9%. Moreover, the “% experiencing MCID in PROMIS Sleep Disturbance 8A score” value in the data set with sleep disturbance [5] (4 mg melatonin, MCID = score reduction of one half the standard deviation of the baseline score) was 51.9%. Also, the “Estimated marginal percentage achieving meaningful clinical improvement on the PROMIS Sleep 8A” value in the data set on sleep disturbance [5] (setting [8]) is 50.5% (37.54%, 67.94%). Further, the “Estimated marginal mean, PROMIS Sleep Disturbance 8A” value is reported as 20.7 in the data set with sleep disturbance [5] (4 mg melatonin, week 1); 20.4 with sleep disturbance [5] (4 mg melatonin, week 2); 20.7 in the data set on sleep disturbance [5] (4 mg melatonin, week 3); 20.4 in the data set with sleep disturbance [5] (4 mg melatonin, week 4).
